# Source: paper PMC6262536 (Cells, 2018)
# Key:
# Assay in all cases: cells
# [1] = tested on: human colon adenocarcinoma cell line (LoVo); type: cell-based; conditions: 72 h, SRB, mean ± SD
# Text: (§1) The BALB/3T3 cell line was purchased from the American Type Culture Collection (ATCC, Manassas, VA, USA), A549 and MCF-7 cell lines—from European Collection of Authenticated Cell Cultures (Salisbury, UK), LoVo cell line was purchased from the ATCC (ATCC, Manassas, VA, USA), and LoVo/DX by courtesy of Prof. E. Borowski (Technical University of Gdańsk, Gdańsk, Poland). All the cell lines are maintained in the Institute of Immunology and Experimental Therapy (IIET), Wroclaw, Poland. […] Human breast adenocarcinoma cell line was cultured in mixture of Eagle medium (IIET, Wroclaw, Poland), supplemented with 10% fetal bovine serum, 2 mM L-glutamine, 8 μg/mL insulin and 1% amino-acids (Sigma-Aldrich, Merck KGaA, Saint Louis, MO, USA). […] Murine embryonic fibroblast cells were cultured in Dulbecco medium (Life Technologies Limited, Paisley, UK), supplemented with 10% fetal bovine serum (GE Healthcare, Logan, UT, USA) and 2 mM glutamine (Sigma-Aldrich, Merck KGaA, Saint Louis, MO, USA). All culture media contained antibiotics: 100 U/mL penicillin and 100 μg/mL streptomycin (Polfa-Tarchomin, Warsaw, Poland). All cell lines were cultured during entire experiment in humid atmosphere at 37 °C and 5% CO2. […] The procedure is repeated every year or in the case of less frequently used lines: after thawing.
# (§2) Twenty-four hours before adding the tested compounds, all cell lines were seeded in 96-well plates (Sarstedt, Nümbrecht, Germany) in appropriate media with 10^4 cells per well. All cell lines were exposed to each tested agent at four different concentrations in the range 100–0.01 μg/mL for 72 h. […] Additionally, all cell lines were exposed to DMSO (solvent used for tested compounds) (POCh, Gliwice, Poland) at concentrations corresponding to those present in tested agents’ dilutions. After 72 h sulforhodamine B assay (SRB) was performed.
# (§3) After 72 h of incubation with the tested compounds, cells were fixed in situ by gently adding of 50 μL per well of cold 50% trichloroacetic acid TCA (POCh, Gliwice, Poland) and were incubated at 4 °C for one hour. Following, wells were washed four times with water and air dried. Next, 50 μL of 0.1% solution of sulforhodamine B (Sigma-Aldrich, Merck KGaA, Saint Louis, MO, USA) in 1% acetic acid (POCh, Gliwice, Poland) were added to each well and plates were incubated at room temperature for 0.5 h. After incubation time, unbound dye was removed by washing plates four times with 1% acetic acid whereas stain bound to cells was solubilized with 10 mM Tris base (Sigma-Aldrich, Steinheim, Germany). Absorbance of each solution was read at Synergy H4 Hybrid Multi-Mode Microplate Reader (BioTek Instruments, Inc., Winooski, VT, USA) at the 540 nm wavelength.
# (§4) Compounds at each concentration were tested in triplicates in single experiment and each experiment was repeated at least three times independently. The Resistance Index (RI) was defined as the ratio of IC50 for a given compound calculated for resistant cell line to that measured for its parental drug sensitive cell line (Table 1).
# [2] = tested on: human breast adenocarcinoma (MCF-7); type: cell-based; conditions: MCF-7, 72 h, SRB, mean ± SD
# Text: as §1, §2, §3, §4
# [3] = tested on: human lung adenocarcinoma (A549); type: cell-based; conditions: A549, 72 h, SRB, mean ± SD
# Text: as §1, §2, §3, §4
# [4] = tested on: normal murine embryonic fibroblast cell line (BALB/3T3); type: cell-based; conditions: normal murine fibroblasts BALB/3T3, 72 h, SRB, mean ± SD
# Text: as §1, §2, §3, §4
# [5] = tested on: doxorubicin-resistant subline (LoVo/DX); type: cell-based, human; conditions: 72 h, SRB, mean ± SD
# Text: as §1, §2, §3, §4
Structure (SMILES),IC50 ([1]; Homo sapiens) [µM],"IC50 ([2]; Homo sapiens, MCF7) [µM]",IC50 ([3]; Homo sapiens) [µM],IC50 ([4]; Mus musculus) [µM],IC50 ([5]; Homo sapiens) [µM],IC50 [1] [µM],IC50 [2] [µM],IC50 [3] [µM],IC50 [4] [µM],IC50 [5] [µM]
"COc1c(Br)c2c(c(OC)c1OC)-c1ccc(OC)c(=O)cc1[C@@H](NC(C)=O)CC2 [Compound 5, 4-bromocolchicine]",0.084 ± 0.021,0.027 ± 0.008,0.105 ± 0.008,0.142 ± 0.073,1.55 ± 0.17,–,–,–,–,–
"COc1c(I)c2c(c(OC)c1OC)-c1ccc(SC)c(=O)cc1[C@@H](NC(C)=O)CC2 [Compound 8, 4-iodothiocolchicine]",0.007 ± 0.002,0.017 ± 0.006,0.011 ± 0.002,0.115 ± 0.044,0.642 ± 0.084,–,–,–,–,–
"COc1c(I)c2c(c(OC)c1OC)-c1ccc(OC)c(=O)cc1[C@@H](NC(C)=O)CC2 [Compound 7, 4-iodocolchicine]",0.01 ± 0.002,0.098 ± 0.029,0.094 ± 0.006,0.135 ± 0.056,2.78 ± 0.45,–,–,–,–,–
"COc1c(Cl)c2c(c(OC)c1OC)-c1ccc(OC)c(=O)cc1[C@@H](NC(C)=O)CC2 [Compound 3, 4-chlorocolchicine]",0.069 ± 0.012,0.023 ± 0.005,0.046 ± 0.035,0.138 ± 0.069,0.784 ± 0.28,–,–,–,–,–
"COc1cccc2c1C(=O)c1c(O)c3c(c(O)c1C2=O)C[C@@](O)(C(=O)CO)C[C@@H]3O[C@H]1C[C@H](N)[C@H](O)[C@H](C)O1 [Doxorubicin, reference compound]",–,–,0.258 ± 0.044,0.166 ± 0.074,4.75 ± 0.99,–,–,–,–,–
COc1c(Cl)c2c(c(OC)c1OC)-c1ccc(SC)c(=O)cc1[C@@H](NC(C)=O)CC2 [Compound 4],0.022 ± 0.002,0.022 ± 0.002,0.022 ± 0.002,0.022 ± 0.002,0.111 ± 0.044,–,–,–,–,–
"COc1c(Br)c2c(c(OC)c1OC)-c1ccc(SC)c(=O)cc1[C@@H](NC(C)=O)CC2 [Compound 6, 4-bromothiocolchine]",0.014 ± 0.004,0.015 ± 0.002,0.01 ± 0.0001,0.103 ± 0.089,0.135 ± 0.012,–,–,–,–,–
"N.N.[Cl][Pt][Cl] [Cisplatin, reference compound]",–,–,–,–,–,4.37 ± 0.73,10.7 ± 0.753,6.37 ± 1.41,3.9 ± 1.5,5.7 ± 0.63
